± gives the standard deviation of the averaged measurements.
Assays:
Experiment in all cases: level (log10 ratio to DMSO vehicle control); higher = higher biomarker level / cell amount than vehicle control
[1] = compound: C=C(C)C(=O)OCCC(F)(F)C(F)(F)C(F)(F)C(F)(F)C(F)(F)C(F)(F)C(F)(F)C(F)(F)F [8:2 Fluorotelomer methacrylate] (in DMSO)
Protocol: (§1)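 BioMAP Diversity Plus panel of 12 human primary cell co-culture systems (3C, 4H, LPS, SAg, BT, BF4T, BE3C, CASM3C, HDF3CGF, KF3CT, MyoF, Mphg). Compounds were added 1 h before stimulation and left for 24 h (MyoF 48 h; BT 72 h for soluble read-outs or 6 d for IgG). Biomarkers were read by ELISA, cytotoxicity by SRB, PBMC viability and proliferation by Alamar Blue. Each well value was divided by the mean of 8 DMSO control wells on the same plate and log10 transformed; duplicate blinded samples were tested at 4 concentrations.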

Octafluoroadipic acid = compound: O=C(O)C(F)(F)C(F)(F)C(F)(F)C(F)(F)C(=O)O [Octafluoroadipic acid] (in DMSO)
Protocol: as §1

Perfluoroundecanoic acid = compound: O=C(O)C(F)(F)C(F)(F)C(F)(F)C(F)(F)C(F)(F)C(F)(F)C(F)(F)C(F)(F)C(F)(F)C(F)(F)F [Perfluoroundecanoic acid] (in DMSO); details: 6700 nM
Protocol: as §1

[2] = compound: O=C(O)CCC(F)(C(F)(F)F)C(F)(F)F [4,4-bis(Trifluoromethyl)-4-fluoropropanoic acid] (in DMSO)
Protocol: as §1

[3] = compound: O=S(=O)(O)C(F)(F)C(F)(F)C(F)(F)C(F)(F)C(F)(F)C(F)(F)C(F)(F)F [Perfluoroheptanesulfonic acid] (in DMSO)
Protocol: as §1

[4] = compound: OCC(F)(F)C(F)(F)C(F)(F)C(F)F [1H,1H,5H-Perfluoropentanol] (in DMSO)
Protocol: as §1

[5] = compound: OCCC(F)(F)C(F)(F)C(F)(F)C(F)(F)F [4:2 Fluorotelomer alcohol] (in DMSO)
Protocol: as §1

Row | Test System | level (log10) ([1]; 6700 nM) | level (log10) ([1]; 20000 nM) | level (log10) (Octafluoroadipic acid; 6700 nM) | level (log10) (Octafluoroadipic acid; 20000 nM) | level (log10) (Octafluoroadipic acid; 60000 nM) | level (log10) (Perfluoroundecanoic acid) | level (log10) ([2]; 6700 nM) | level (log10) ([2]; 20000 nM) | level (log10) ([2]; 60000 nM) | level (log10) ([3]; 1500 nM) | level (log10) ([3]; 4400 nM) | level (log10) ([3]; 13000 nM) | level (log10) ([3]; 40000 nM) | level (log10) ([4]; 6700 nM) | level (log10) ([4]; 20000 nM) | level (log10) ([4]; 60000 nM) | level (log10) ([5]; 6700 nM) | level (log10) ([5]; 20000 nM) | level (log10) ([5]; 60000 nM)
1 | BF4T:tPA | -0.027 ± 0.0028 | -0.017 ± 0.0057 | -0.007 ± 0.0014 | -0.0065 ± 0.025 | 0.0035 ± 0.005 | -0.043 ± 0.037 | -0.0185 ± 0.035 | -0.019 ± 0.013 | -0.0035 ± 0.023 | 0.0235 ± 0.052 | -0.0065 ± 0.0064 | -0.0165 ± 0.025 | 0.0225 ± 0.039 | -0.009 ± 0.028 | 0.0335 ± 0.022 | 0.04 ± 0.058 | -0.0085 ± 0.056 | -0.0155 ± 0.071 | 0.022
2 | BT:sIL-6 | 0.0115 ± 0.042 | -0.0085 ± 0.11 | 0.013 ± 0.083 | 0.021 ± 0.016 | -0.102 ± 0.14 | 0.0325 ± 0.019 | 0 ± 0.12 | -0.0215 ± 0.069 | -0.0665 ± 0.046 | 0.004 ± 0.013 | 0.03 ± 0.013 | -0.027 ± 0.011 | -0.139 ± 0.057 | 0.0265 ± 0.005 | 0.0175 ± 0.015 | 0.003 ± 0.014 | 0.035 ± 0.02 | 0.0455 ± 0.036 | 0.009 ± 0.069
3 | BF4T:Keratin 8/18 | -0.019 ± 0.0028 | 0.0115 ± 0.016 | 0.002 ± 0.023 | -0.004 ± 0.021 | 0.004 ± 0.037 | 0 ± 0.014 | -0.0015 ± 0.0064 | -0.032 ± 0.051 | -0.0015 ± 0.03 | 0.009 ± 0.025 | -0.012 ± 0.013 | -0.027 ± 0.0014 | 0.0125 ± 0.015 | -0.046 ± 0.033 | 0.006 ± 0.044 | 0.0235 ± 0.023 | -0.026 ± 0.021 | -0.0185 ± 0.039 | 0.017 ± 0.0028
4 | BF4T:SRB | -0.0045 ± 0.0035 | -0.0005 ± 0.00071 | -0.0145 ± 0.0064 | -0.011 ± 0.0071 | -0.0065 ± 0.0035 | -0.0115 ± 0.0035 | 0.0065 ± 0.015 | 0.0015 ± 0.021 | 0.02 ± 0.014 | 0.0075 ± 0.018 | -0.008 ± 0.0014 | -0.0125 ± 0.0021 | -0.016 ± 0.021 | -0.0055 ± 0.0021 | 0.001 ± 0.0085 | 0.002 ± 0.0014 | -0.0075 ± 0.00071 | -0.0105 ± 0.0078 | -0.0045 ± 0.012
5 | BF4T:CCL26/Eotaxin-3 | -0.02 ± 0.0099 | -0.069 ± 0.013 | 0.0055 ± 0.025 | -0.007 ± 0.042 | 0.009 ± 0.04 | -0.212 ± 0.014 | 0.028 ± 0.024 | 0.004 ± 0.0028 | 0.0185 ± 0.042 | 0.053 ± 0.05 | 0.01 | -0.0715 ± 0.011 | -0.069 ± 0.058 | 0.0125 ± 0.059 | 0.0235 ± 0.005 | 0.049 ± 0.044 | -0.037 ± 0.068 | 0.016 ± 0.073 | 0.001 ± 0.082
6 | BT:sTNF-alpha | -0.031 ± 0.055 | -0.049 ± 0.0042 | 0.0535 ± 0.17 | 0.028 ± 0.17 | 0.116 ± 0.02 | 0.06 ± 0.02 | -0.0135 ± 0.22 | -0.051 ± 0.12 | -0.031 ± 0.16 | -0.022 ± 0.018 | -0.043 ± 0.0042 | -0.048 ± 0.014 | -0.101 ± 0.0099 | -0.0315 ± 0.0092 | -0.051 ± 0.016 | -0.003 ± 0.068 | 0.126 ± 0.061 | 0.0895 ± 0.077 | 0.143 ± 0.14
7 | LPS:sPGE2 | -0.038 ± 0.013 | -0.058 ± 0.048 | -0.002 ± 0.044 | -0.023 ± 0.0028 | -0.014 ± 0.017 | -0.0665 ± 0.044 | -0.0445 ± 0.019 | -0.018 ± 0.033 | 0.011 ± 0.0085 | 0.018 ± 0.024 | 0.0045 ± 0.016 | 0.0175 ± 0.0064 | 0.005 ± 0.024 | -0.071 ± 0.011 | -0.027 ± 0.018 | -0.0175 ± 0.036 | -0.008 ± 0.025 | -0.0115 ± 0.044 | -0.0105 ± 0.025
8 | BE3C:CXCL10/IP-10 | -0.0005 ± 0.018 | -0.0105 ± 0.028 | -0.0035 ± 0.0035 | -0.002 ± 0.011 | 0.017 ± 0.023 | -0.4655 ± 0.0021 | 0.006 ± 0.034 | 0.0035 ± 0.023 | -0.0045 ± 0.0035 | 0.0075 ± 0.0035 | 0.0055 ± 0.0078 | -0.01 ± 0.024 | -0.039 ± 0.016 | -0.0015 ± 0.016 | 0.005 ± 0.017 | 0.0165 ± 0.042 | -0.009 ± 0.021 | 0.002 ± 0.016 | -0.0015 ± 0.0035
9 | BF4T:MMP-3 | -0.0035 ± 0.019 | 0.0255 ± 0.044 | 0.0055 ± 0.033 | -0.0055 ± 0.035 | 0.0025 ± 0.022 | -0.002 ± 0.038 | 0.0295 ± 0.022 | 0.0285 ± 0.00071 | 0.031 ± 0.052 | 0.047 ± 0.045 | -0.015 ± 0.014 | 0.0025 ± 0.046 | 0.117 ± 0.028 | -0.0125 ± 0.0064 | -0.007 ± 0.0099 | 0.002 ± 0.021 | -0.0135 ± 0.021 | -0.008 ± 0.013 | -0.011 ± 0.014
10 | 4H:CD87/uPAR | -0.0325 ± 0.0035 | -0.0345 ± 0.042 | 0.04 ± 0.0071 | 0.039 ± 0.011 | 0.0345 ± 0.0064 | -0.008 ± 0.025 | -0.0095 ± 0.056 | 0.0235 ± 0.035 | 0.0275 ± 0.067 | -0.0135 ± 0.032 | 0.0325 ± 0.00071 | 0.0455 ± 0.005 | 0.0355 ± 0.029 | -0.0225 ± 0.0092 | 0.0025 ± 0.019 | 0.007 ± 0.034 | -0.026 ± 0.011 | -0.0105 ± 0.023 | -0.005 ± 0.0028
11 | SAg:CXCL8/IL-8 | -0.0215 ± 0.047 | 0.007 ± 0.021 | 0.014 ± 0.018 | 0.01 ± 0.013 | 0.018 ± 0.031 | -0.021 ± 0.0028 | 0.027 ± 0.035 | 0.0095 ± 0.064 | 0.019 ± 0.079 | 0.0205 ± 0.12 | -0.04 ± 0.075 | -0.001 ± 0.045 | 0.0455 ± 0.047 | 0.006 ± 0.033 | -0.0065 ± 0.00071 | 0.0275 ± 0.052 | -0.017 ± 0.0071 | -0.018 ± 0.016 | 0.018 ± 0.034
12 | 4H:CCL26/Eotaxin-3 | 0.0035 ± 0.037 | 0 ± 0.02 | 0.022 ± 0.016 | 0.0185 ± 0.0092 | 0.016 ± 0.027 | 0.016 ± 0.03 | -0.0225 ± 0.0064 | 0.006 ± 0.033 | -0.0015 ± 0.049 | -0.006 ± 0.025 | -0.061 ± 0.035 | -0.0335 ± 0.011 | -0.0665 ± 0.022 | -0.008 ± 0.011 | 0.008 ± 0.0085 | -0.005 ± 0.0071 | -0.018 ± 0.016 | -0.0045 ± 0.0035 | -0.0015 ± 0.0035
13 | 3C:CD87/uPAR | 0.046 ± 0.018 | 0.049 ± 0.013 | -0.023 ± 0.0057 | -0.0175 ± 0.025 | -0.014 ± 0.021 | -0.0125 ± 0.005 | 0.051 ± 0.0057 | 0.0265 ± 0.0078 | 0.0295 ± 0.044 | 0.0655 ± 0.0078 | 0.0535 ± 0.021 | 0.0485 ± 0.044 | 0.0565 ± 0.064 | -0.0135 ± 0.019 | 0.0015 ± 0.011 | -0.0095 ± 0.013 | -0.015 ± 0.014 | -0.0215 ± 0.028 | 0.005 ± 0.0071
14 | BE3C:CXCL8/IL-8 | -0.002 ± 0.014 | -0.008 ± 0.0028 | 0.0325 ± 0.0092 | 0.0355 ± 0.021 | 0.058 ± 0.068 | -0.113 | -0.0055 ± 0.011 | -0.025 ± 0.033 | -0.019 ± 0.033 | 0.0105 ± 0.018 | 0.02 ± 0.0099 | 0.0405 ± 0.019 | 0.0595 ± 0.057 | -0.0065 ± 0.077 | 0.0185 ± 0.12 | 0.0875 ± 0.12 | -0.001 ± 0.0085 | -0.006 ± 0.0014 | 0.043 ± 0.04
15 | SAg:SRB | -0.009 ± 0.0014 | -0.011 ± 0.018 | -0.01 ± 0.016 | -0.008 ± 0.014 | -0.012 ± 0.0014 | 0.0015 ± 0.0092 | -0.0035 ± 0.0078 | 0.006 ± 0.0042 | 0.003 ± 0.016 | -0.015 ± 0.0057 | -0.0125 ± 0.00071 | -0.0005 ± 0.012 | -0.0025 ± 0.013 | -0.0075 ± 0.0021 | -0.009 ± 0.0014 | 0.001 ± 0.0085 | -0.009 ± 0.0042 | -0.013 ± 0.016 | 0.001 ± 0.0028

Reference: the supplement of paper PMC10331698
